Laboratory results taken from paper PMC4451509, “9-cis-13,14-Dihydroretinoic Acid Is an Endogenous Retinoid Acting as RXR Ligand in Mice” (PLoS Genetics, 2015).

Key:
[1] = biological target: T1, hRARα LBD (Homo sapiens, UniProt P10276); assay: non-denaturing ESI-MS
T1 construct: gene RARA
T1 sequence (P10276 153-421): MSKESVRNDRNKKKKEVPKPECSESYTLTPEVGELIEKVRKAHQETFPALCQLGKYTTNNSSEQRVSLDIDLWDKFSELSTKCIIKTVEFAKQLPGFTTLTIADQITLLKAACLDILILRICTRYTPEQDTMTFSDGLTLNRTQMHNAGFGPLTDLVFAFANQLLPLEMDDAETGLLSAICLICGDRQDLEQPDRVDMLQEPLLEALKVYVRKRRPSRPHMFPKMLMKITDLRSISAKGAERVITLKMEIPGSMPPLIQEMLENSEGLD

[2] = biological target: T2, hRARβ LBD (Homo sapiens, UniProt P10826); assay: non-denaturing ESI-MS; format: binding
T2 construct: gene RARB; LBD (169–414), N-terminal His-tag
T2 sequence (P10826 169-414): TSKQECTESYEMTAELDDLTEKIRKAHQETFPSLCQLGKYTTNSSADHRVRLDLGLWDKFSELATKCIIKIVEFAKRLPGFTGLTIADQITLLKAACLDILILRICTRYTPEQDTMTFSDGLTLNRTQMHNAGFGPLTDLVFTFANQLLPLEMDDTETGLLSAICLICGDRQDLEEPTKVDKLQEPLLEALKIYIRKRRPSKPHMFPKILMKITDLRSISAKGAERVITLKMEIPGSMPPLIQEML

## CC1=C(/C=C/C(C)=C\C=C\C(C)=C\C(=O)O)C(C)(C)CCC1 [9CRA, 9-cis-retinoic acid]
[1]
  non-denaturing ESI-MS: percent of bound/free protein for hRAR isotypes for R- and S-9CDHRA enantiomers and 9CRA

## CC1=C(/C=C/C(C)=C\C=C\[C@H](C)CC(=O)O)C(C)(C)CCC1 [R-9CDHRA]
[1]
  non-denaturing ESI-MS: revealed that 9CDHRA (R and S) bind to all RAR LBD isotypes
[2]
  non-denaturing ESI-MS: revealed that 9CDHRA (R and S) bind to all RAR LBD isotypes

## CC1=C(/C=C/C(C)=C\C=C\[C@@H](C)CC(=O)O)C(C)(C)CCC1 [S-9CDHRA]
[1]
  non-denaturing ESI-MS: revealed that 9CDHRA (R and S) bind to all RAR LBD isotypes
[2]
  non-denaturing ESI-MS: revealed that 9CDHRA (R and S) bind to all RAR LBD isotypes
